What was measured:
[1] = cited from earlier work
[2] = Gas-induced (pressurized CO2) phase transformation of crystal forms, followed by XRPD; assay type: physicochemical
Excerpt: The invention teaches that simple pressurization of polymorphic forms of an organic solid, such as a pharmaceutical agent, can effect phase transitions among the forms with ease. More specifically, the inventive method comprises the step of subjecting an organic solid to a pressurized gas under low to moderate pressure at room temperature to a mildly elevated temperature for a period of time. The pressurized gas may be CO2, N2O, and CH4, and the pressure may start at 1 atm, whereas under slightly elevated pressure, the reaction temperature may be lowered, while the reaction time may be shortened.
Refer to FIG. 3, which includes schematic illustrations of the phase transformations between different forms of Clarithromycin 1. […] As expected, desolvated form I can be transformed to form II with greater ease under analogous conditions. […] Different gases including H2, He, CH4, N2, O2, air, and N2O have been studied, among which N2O has similar transformation effect as CO2.
Refer to FIG. 5, which compares the transformations under different gas pressures (350 psi vs. 100 psi) at different durations.
The invention has also studied Lansoprazole 2 transformations under CO2 but at higher pressure conditions.

[3] = 1:1 ethanol hydrate; cited from earlier work

CO[C@@H]1[C@@H](OC(N)=O)[C@@H](O)[C@H](Oc2ccc3c(O)c(NC(=O)c4ccc(O)c(CC=C(C)C)c4)c(=O)oc3c2C)OC1(C)C [novobiocin amorphous phase, novobiocin]
absorption upon oral administration [1]: readily absorbed

CO[C@@H]1[C@@H](OC(N)=O)[C@@H](O)[C@H](Oc2ccc3c(O)c(NC(=O)c4ccc(O)c(CC=C(C)C)c4)c(=O)oc3c2C)OC1(C)C [novobiocin crystalline form, novobiocin]
absorption upon oral administration [1]: poorly absorbed

Cc1c(OCC(F)(F)F)ccnc1C[S+]([O-])c1nc2ccccc2[nH]1 (stereo not drawn) [Lansoprazole ethanol hydrate, Lansoprazole]
transformation of ethanol hydrate to solvent-free form ([2]; 500 psi CO2, room temperature): transformation to the more thermodynamically stable solvent-free form begins
chemical stability of the solvate [3]: prone to decomposition

CC[C@H]1OC(=O)[C@H](C)[C@@H](O[C@H]2C[C@@](C)(OC)[C@@H](O)[C@H](C)O2)[C@H](C)[C@@H](O[C@@H]2O[C@H](C)C[C@H](N(C)C)[C@H]2O)[C@](C)(OC)C[C@@H](C)C(=O)[C@H](C)[C@@H](O)[C@]1(C)O [Clarithromycin form 0, 6-O-methylerythro-mycin A]
time of exposure for complete transformation directly to form II ([2]; 23.8 atm (350 psi) CO2, room temperature): 4 h

CC[C@H]1OC(=O)[C@H](C)[C@@H](O[C@H]2C[C@@](C)(OC)[C@@H](O)[C@H](C)O2)[C@H](C)[C@@H](O[C@@H]2O[C@H](C)C[C@H](N(C)C)[C@H]2O)[C@](C)(OC)C[C@@H](C)C(=O)[C@H](C)[C@@H](O)[C@]1(C)O [Clarithromycin form I, 6-O-methylerythro-mycin A]
time for transformation to form II ([2]; pressurization under 350 psi CO2): within just several minutes

Source: patent US9119769B2, “Method for transforming pharmaceutical crystal forms” (The Curators of the University of Missouri, priority 2012, dated 2015)
